Active and inactive are the calls of the source. No cut-off for these calls is given here.
Columns and labels:
Vaccinia virus [1] = assay: Antiviral activity against Vaccinia virus WR infected BALB/c mouse assessed as mean death day at 3 mg/kg, po treated for 5 days after 72 hrs of viral inoculation; assay type: functional, Orthopoxvirus vaccinia
Cowpox virus [2] = assay: Antiviral activity against Cowpox virus Brighton infected BALB/c mouse assessed as mean death day at 10 mg/kg, po treated for 5 days after 72 hrs of viral inoculation; assay type: functional, Cowpox virus (Brighton Red)
Cowpox virus [3] = assay: Antiviral activity against Cowpox virus Brighton infected BALB/c mouse assessed as mortality at 3 mg/kg, po treated for 5 days after 72 hrs of viral inoculation; assay type: functional, Cowpox virus (Brighton Red)
Cowpox virus [4] = assay: Antiviral activity against Cowpox virus Brighton infected BALB/c mouse assessed as mean death day at 30 mg/kg, po treated for 5 days after 48 hrs of viral inoculation; assay type: functional, Cowpox virus (Brighton Red)
Vaccinia virus [5] = assay: Antiviral activity against Vaccinia virus WR infected BALB/c mouse assessed as mean death day at 10 mg/kg, po treated for 5 days after 72 hrs of viral inoculation; assay type: functional, Orthopoxvirus vaccinia
Cowpox virus [6] = assay: Toxicity in Cowpox virus Brighton infected BALB/c mouse assessed as survival at 30 mg/kg, po treated for 5 days after 24 hrs of viral inoculation; assay type: functional, organism-based; set-up: dose 30 mg/kg; details: Cowpox virus (Brighton Red)
Vaccinia virus [7] = assay: Antiviral activity against Vaccinia virus WR infected BALB/c mouse assessed as log reduction of viral titer per gram of liver at 30 mg/kg, po treated for 5 days after 24 hrs of viral inoculation; assay type: functional, Orthopoxvirus vaccinia
Vaccinia virus [8] = assay: Antiviral activity against Vaccinia virus WR infected BALB/c mouse assessed as mortality at 3 mg/kg, po treated for 5 days after 48 hrs of viral inoculation; assay type: functional, Orthopoxvirus vaccinia
[9] = Cytotoxicity against HFF cells after 7 days; assay type: cell-based; details: human
Vaccinia virus [10] = assay: Antiviral activity against Vaccinia virus WR infected BALB/c mouse assessed as mortality at 30 mg/kg, po treated for 5 days after 24 hrs of viral inoculation; assay type: functional, Orthopoxvirus vaccinia
Vaccinia virus [11] = assay: Antiviral activity against Vaccinia virus WR infected BALB/c mouse assessed as mortality at 10 mg/kg, po treated for 5 days after 72 hrs of viral inoculation; assay type: functional, Orthopoxvirus vaccinia
Cowpox virus [12] = assay: Antiviral activity against Cowpox virus Brighton infected BALB/c mouse assessed as mean death day at 3 mg/kg, po treated for 5 days after 48 hrs of viral inoculation; assay type: functional, Cowpox virus (Brighton Red)
Cowpox virus [13] = assay: Antiviral activity against Cowpox virus Brighton infected BALB/c mouse assessed as mean death day at 10 mg/kg, po treated for 5 days after 24 hrs of viral inoculation; assay type: functional, Cowpox virus (Brighton Red)
Vaccinia virus [14] = assay: Antiviral activity against Vaccinia virus WR infected BALB/c mouse assessed as log reduction of viral titer per gram of kidney at 30 mg/kg, po treated for 5 days after 24 hrs of viral inoculation; assay type: functional, Orthopoxvirus vaccinia
Mus musculus = assay: Toxicity in BALB/c mouse at 30 mg/kg, po; assay type: organism-based; set-up: dose 30 mg/kg, route oral; details: in vivo
Vaccinia virus [15] = assay: Antiviral activity against Vaccinia virus Copenhagen in HFF cells assessed as reduction of viral replication after 3 days; assay type: functional, organism-based; details: Orthopoxvirus vaccinia, 72 h
Cowpox virus [16] = assay: Antiviral activity against Cowpox virus Brighton infected BALB/c mouse assessed as log reduction of viral titer per gram of liver at 30 mg/kg, po treated for 5 days after 24 hrs of viral inoculation; assay type: functional, Cowpox virus (Brighton Red)
Vaccinia virus [17] = assay: Antiviral activity against Vaccinia virus WR infected BALB/c mouse assessed as mortality at 30 mg/kg, po treated for 5 days after 48 hrs of viral inoculation; assay type: functional, Orthopoxvirus vaccinia
Vaccinia virus [18] = assay: Antiviral activity against Vaccinia virus WR infected BALB/c mouse assessed as mortality at 10 mg/kg, po treated for 5 days after 48 hrs of viral inoculation; assay type: functional, Orthopoxvirus vaccinia
[19] = Selectivity index, ratio of CC50 for HFF cells to EC50 for Vaccinia virus WR; assay type: toxicity, cell-based; details: human, read-out: Ratio CC50/EC50
Vaccinia virus [20] = assay: Antiviral activity against Vaccinia virus WR infected BALB/c mouse assessed as mean death day at 30 mg/kg, po treated for 5 days after 72 hrs of viral inoculation; assay type: functional, Orthopoxvirus vaccinia
Cowpox virus [21] = assay: Antiviral activity against Cowpox virus Brighton infected BALB/c mouse assessed as mortality at 10 mg/kg, po treated for 5 days after 72 hrs of viral inoculation; assay type: functional, Cowpox virus (Brighton Red)
Vaccinia virus [22] = assay: Antiviral activity against Vaccinia virus WR infected BALB/c mouse assessed as mean death day at 3 mg/kg, po treated for 5 days after 48 hrs of viral inoculation; assay type: functional, Orthopoxvirus vaccinia
Vaccinia virus [23] = assay: Antiviral activity against Vaccinia virus WR infected BALB/c mouse assessed as mortality at 3 mg/kg, po treated for 5 days after 72 hrs of viral inoculation; assay type: functional, Orthopoxvirus vaccinia
Cowpox virus [24] = assay: Antiviral activity against Cowpox virus Brighton infected BALB/c mouse assessed as mortality at 3 mg/kg, po treated for 5 days after 24 hrs of viral inoculation; assay type: functional, Cowpox virus (Brighton Red)
Cowpox virus [25] = assay: Antiviral activity against Cowpox virus Brighton infected BALB/c mouse assessed as mean death day at 3 mg/kg, po treated for 5 days after 24 hrs of viral inoculation; assay type: functional, Cowpox virus (Brighton Red)
Vaccinia virus [26] = assay: Antiviral activity against Vaccinia virus WR in HFF cells assessed as reduction of viral replication after 3 days; assay type: functional, organism-based; details: Orthopoxvirus vaccinia, 72 h
Vaccinia virus [27] = assay: Antiviral activity against Vaccinia virus WR infected BALB/c mouse assessed as mortality at 30 mg/kg, po treated for 5 days after 72 hrs of viral inoculation; assay type: functional, Orthopoxvirus vaccinia
Cowpox virus [28] = assay: Antiviral activity against Cowpox virus Brighton infected BALB/c mouse assessed as log reduction of viral titer per gram of kidney at 30 mg/kg, po treated for 5 days after 24 hrs of viral inoculation; assay type: functional, Cowpox virus (Brighton Red)
Vaccinia virus [29] = assay: Antiviral activity against Vaccinia virus WR infected BALB/c mouse assessed as mean death day at 30 mg/kg, po treated for 5 days after 48 hrs of viral inoculation; assay type: functional, Orthopoxvirus vaccinia
Cowpox virus [30] = assay: Antiviral activity against Cowpox virus Brighton infected BALB/c mouse assessed as reduction of virus titer in lung at 30 mg/kg, po treated for 5 days after 24 hrs of viral inoculation; assay type: functional, organism-based; set-up: dose 30 mg/kg; details: Cowpox virus (Brighton Red)
Vaccinia virus [31] = assay: Antiviral activity against Vaccinia virus WR infected BALB/c mouse assessed as mortality at 3 mg/kg, po treated for 5 days after 24 hrs of viral inoculation; assay type: functional, Orthopoxvirus vaccinia
[32] = Selectivity index, ratio of CC50 for HFF cells to EC50 for Vaccinia virus Copenhagen; assay type: toxicity, cell-based; details: human, read-out: Ratio CC50/EC50
Cowpox virus [33] = assay: Antiviral activity against Cowpox virus Brighton infected BALB/c mouse assessed as mortality at 3 mg/kg, po treated for 5 days after 48 hrs of viral inoculation; assay type: functional, Cowpox virus (Brighton Red)
Cowpox virus [34] = assay: Antiviral activity against Cowpox virus Brighton in HFF cells assessed as reduction of viral replication after 3 days; assay type: functional, organism-based, Cowpox virus (Brighton Red); details: 72 h
Cowpox virus [35] = assay: Antiviral activity against Cowpox virus Brighton infected BALB/c mouse assessed as mortality at 30 mg/kg, po treated for 5 days after 48 hrs of viral inoculation; assay type: functional, Cowpox virus (Brighton Red)
Vaccinia virus [36] = assay: Toxicity in Vaccinia virus WR infected BALB/c mouse assessed as survival at 30 mg/kg, po treated for 5 days after 24 hrs of viral inoculation; assay type: functional, organism-based; set-up: dose 30 mg/kg; details: Orthopoxvirus vaccinia
Cowpox virus [37] = assay: Antiviral activity against Cowpox virus Brighton infected BALB/c mouse assessed as mean death day at 10 mg/kg, po treated for 5 days after 48 hrs of viral inoculation; assay type: functional, Cowpox virus (Brighton Red)
Vaccinia virus [38] = assay: Antiviral activity against Vaccinia virus WR infected BALB/c mouse assessed as log reduction of viral titer per gram of spleen at 30 mg/kg, po treated for 5 days after 24 hrs of viral inoculation; assay type: functional, Orthopoxvirus vaccinia
Vaccinia virus [39] = assay: Antiviral activity against Vaccinia virus WR infected BALB/c mouse assessed as mortality at 10 mg/kg, po treated for 5 days after 24 hrs of viral inoculation; assay type: functional, Orthopoxvirus vaccinia

| SMILES | Activity (Vaccinia virus [1]) | Activity (Cowpox virus [2]) | Activity (Cowpox virus [3]) | Activity (Cowpox virus [4]) | Activity (Vaccinia virus [5]) | Activity (Cowpox virus [6]) | log10PFU (Vaccinia virus [7]) | Activity (Vaccinia virus [8]) | CC50 at 168 h [9] | Activity (Vaccinia virus [10]) | Activity (Vaccinia virus [11]) | Activity (Cowpox virus [12]) | Activity (Cowpox virus [13]) | log10PFU (Vaccinia virus [14]) | Activity (Mus musculus) | EC50 (Vaccinia virus [15]) | log10PFU (Cowpox virus [16]) | Activity (Vaccinia virus [17]) | Activity (Vaccinia virus [18]) | selectivity ratio [19] | also measured |
| --- | --- | --- | --- | --- | --- | --- | --- | --- | --- | --- | --- | --- | --- | --- | --- | --- | --- | --- | --- | --- | --- |
| CCCCCCCCCCCCCCCCOCCCOP(=O)(O)CO[C@H](CO)Cn1cnc2c(N)ncnc21 | 7.8 days | 12.3 days | 87% | 16.5 days | 9.1 days | Not toxic | 4 g | 33% | 9700 nM | 13% | 53% | 12.7 days | 13.8 days | 4 g | Non-toxic | 10 nM | 2.5 g | 7% | 13% | 32 | Activity (Vaccinia virus [20]): 8 days; Activity (Cowpox virus [21]): 73%; Activity (Vaccinia virus [22]): 9.2 days; Activity (Vaccinia virus [23]): 87%; Activity (Cowpox virus [24]): 93%; Activity (Cowpox virus [25]): 11.4 days; EC50 (Vaccinia virus [26]): 300 nM; Activity (Vaccinia virus [27]): 7%; log10PFU (Cowpox virus [28]): 2.5 g; Activity (Vaccinia virus [29]): 11 days; Activity (Cowpox virus [30]): inactive; Activity (Vaccinia virus [31]): 27%; selectivity ratio [32]: 970; Activity (Cowpox virus [33]): 87%; EC50 (Cowpox virus [34]): 20 nM; Activity (Cowpox virus [35]): 13%; Activity (Vaccinia virus [36]): Not toxic; Activity (Cowpox virus [37]): 12.3 days; log10PFU (Vaccinia virus [38]): 4 g; Activity (Vaccinia virus [39]): 0% |
| CCCCCCCCCCCCCCCCCCOCCOP(=O)(O)CO[C@H](CO)Cn1cnc2c(N)ncnc21 | 9 days | 12.2 days | 93% | 9.5 days | 9 days | Not toxic | 4 g | 53% | 1500 nM | 27% | 33% | 10.6 days | 14 days | 4 g | Non-toxic | 10 nM | 2.5 g | 40% | 20% | 15 | Activity (Vaccinia virus [20]): 10.5 days; Activity (Cowpox virus [21]): 67%; Activity (Vaccinia virus [22]): 7.9 days; Activity (Vaccinia virus [23]): 40%; Activity (Cowpox virus [24]): 60%; Activity (Cowpox virus [25]): 13.7 days; EC50 (Vaccinia virus [26]): 100 nM; Activity (Vaccinia virus [27]): 73%; log10PFU (Cowpox virus [28]): 2.5 g; Activity (Vaccinia virus [29]): 9.7 days; Activity (Cowpox virus [30]): inactive; Activity (Vaccinia virus [31]): 67%; selectivity ratio [32]: 150; Activity (Cowpox virus [33]): 80%; EC50 (Cowpox virus [34]): 20 nM; Activity (Cowpox virus [35]): 13%; Activity (Vaccinia virus [36]): Not toxic; Activity (Cowpox virus [37]): 11 days; log10PFU (Vaccinia virus [38]): 4 g; Activity (Vaccinia virus [39]): 0% |

Source: ChEMBL document CHEMBL1137662, “Effect of oral treatment with hexadecyloxypropyl-[(S)-9-(3-hydroxy-2- phosphonylmethoxypropyl)adenine] [(S)-HPMPA] or octadecyloxyethyl-(S)-HPMPA on cowpox or vaccinia virus infections in mice” (Antimicrob Agents Chemother, 2007)
